Results on one molecule are retold here after ChEMBL document CHEMBL4385653, “Design, synthesis, biological evaluation of benzoyl amide derivatives containing nitrogen heterocyclic ring as potential VEGFR-2 inhibitors” (Bioorg Med Chem, 2019).

Holding throughout (type): functional
The subject of experiment [1] is MCF7. The experiment in a line: Induction of apoptosis in human MCF7 cells assessed as viable cells level at 4 uM incubated for 12 hrs by Annexin V-FITC/PI double staining based flow cytometry analysis (reference value: 89%). For orientation: A flow cytometer gives signals particle by particle.
Experiment [2] relates to MCF7. The experiment in a line: Induction of apoptosis in human MCF7 cells assessed as late necrotic cells level at 2 uM incubated for 24 hrs by Annexin V-FITC/PI double staining based flow cytometry analysis (reference value: 1.49%).
Experiment [3] deals with MCF7. The experiment in a line: Induction of apoptosis in human MCF7 cells assessed as early apoptotic cells level at 4 uM incubated for 24 hrs by Annexin V-FITC/PI double staining based flow cytometry analysis (reference value: 6.37%).
Experiment [4] deals with MCF7. The experiment in a line: Induction of apoptosis in human MCF7 cells assessed as early apoptotic cells level at 2 uM incubated for 24 hrs by Annexin V-FITC/PI double staining based flow cytometry analysis (reference value: 6.37%).
Experiment [5] relates to MCF7. In words: Induction of apoptosis in human MCF7 cells assessed as viable cells level at 4 uM incubated for 24 hrs by Annexin V-FITC/PI double staining based flow cytometry analysis (reference value: 89%).
Experiment [6] has as its system MCF7. The experiment in a line: Induction of apoptosis in human MCF7 cells assessed as viable cells level at 4 uM incubated for 24 hrs by Annexin V-FITC/PI double staining based flow cytometry analysis (reference value: 82%).
The subject of experiment [7] is MCF7. The experiment in a line: Induction of apoptosis in human MCF7 cells assessed as late necrotic cells level at 8 uM incubated for 24 hrs by Annexin V-FITC/PI double staining based flow cytometry analysis (reference value: 1.49%).
The subject of experiment [8] is MCF7. In words: Induction of apoptosis in human MCF7 cells assessed as late necrotic cells level at 4 uM incubated for 12 hrs by Annexin V-FITC/PI double staining based flow cytometry analysis (reference value: 6.88%).
In experiment [9] the test system is MCF7. The experiment in a line: Induction of apoptosis in human MCF7 cells assessed as viable cells level at 4 uM incubated for 36 hrs by Annexin V-FITC/PI double staining based flow cytometry analysis (reference value: 89%).
The test system of experiment [10] is MCF7. The experiment in a line: Induction of apoptosis in human MCF7 cells assessed as late necrotic cells level at 4 uM incubated for 24 hrs by Annexin V-FITC/PI double staining based flow cytometry analysis (reference value: 6.88%).
Experiment [11] concerns MCF7. In words: Induction of apoptosis in human MCF7 cells assessed as late apoptotic cells level at 4 uM incubated for 24 hrs by Annexin V-FITC/PI double staining based flow cytometry analysis (reference value: 3.1%).
Experiment [12] concerns MCF7. The experiment in a line: Induction of apoptosis in human MCF7 cells assessed as late apoptotic cells level at 8 uM incubated for 24 hrs by Annexin V-FITC/PI double staining based flow cytometry analysis (reference value: 10.1%).
For experiment [13], the system named is MCF7. The experiment in a line: Induction of apoptosis in human MCF7 cells assessed as early apoptotic cells level at 4 uM incubated for 36 hrs by Annexin V-FITC/PI double staining based flow cytometry analysis (reference value: 1.06%).
Experiment [14] has as its system MCF7. In words: Induction of apoptosis in human MCF7 cells assessed as late necrotic cells level at 4 uM incubated for 36 hrs by Annexin V-FITC/PI double staining based flow cytometry analysis (reference value: 6.88%).
Experiment [15] concerns MCF7. In words: Induction of apoptosis in human MCF7 cells assessed as viable cells level at 8 uM incubated for 24 hrs by Annexin V-FITC/PI double staining based flow cytometry analysis (reference value: 82%).
The test system of experiment [16] is MCF7. The experiment in a line: Induction of apoptosis in human MCF7 cells assessed as late necrotic cells level at 4 uM incubated for 24 hrs by Annexin V-FITC/PI double staining based flow cytometry analysis (reference value: 1.49%).
Experiment [17] has as its system MCF7. In words: Induction of apoptosis in human MCF7 cells assessed as late apoptotic cells level at 4 uM incubated for 36 hrs by Annexin V-FITC/PI double staining based flow cytometry analysis (reference value: 3.1%).
Experiment [18] deals with MCF7. In words: Induction of apoptosis in human MCF7 cells assessed as early apoptotic cells level at 8 uM incubated for 24 hrs by Annexin V-FITC/PI double staining based flow cytometry analysis (reference value: 6.37%).
The subject of experiment [19] is MCF7. The experiment in a line: Induction of apoptosis in human MCF7 cells assessed as early apoptotic cells level at 4 uM incubated for 12 hrs by Annexin V-FITC/PI double staining based flow cytometry analysis (reference value: 1.06%).
Experiment [20] concerns MCF7. The experiment in a line: Induction of apoptosis in human MCF7 cells assessed as early apoptotic cells level at 4 uM incubated for 24 hrs by Annexin V-FITC/PI double staining based flow cytometry analysis (reference value: 1.06%).
For experiment [21], the system named is MCF7. The experiment in a line: Induction of apoptosis in human MCF7 cells assessed as late apoptotic cells level at 4 uM incubated for 12 hrs by Annexin V-FITC/PI double staining based flow cytometry analysis (reference value: 3.1%).
For experiment [22], the system named is MCF7. The experiment in a line: Induction of apoptosis in human MCF7 cells assessed as viable cells level at 2 uM incubated for 24 hrs by Annexin V-FITC/PI double staining based flow cytometry analysis (reference value: 82%).
For experiment [23], the system named is MCF7. In words: Induction of apoptosis in human MCF7 cells assessed as late apoptotic cells level at 4 uM incubated for 24 hrs by Annexin V-FITC/PI double staining based flow cytometry analysis (reference value: 10.1%).
Experiment [24] deals with MCF7. In words: Induction of apoptosis in human MCF7 cells assessed as late apoptotic cells level at 2 uM incubated for 24 hrs by Annexin V-FITC/PI double staining based flow cytometry analysis (reference value: 10.1%).

On to `CCCS(=O)(=O)Nc1ccc(F)c(C(=O)c2c[nH]c3ncc(-c4ccc(Cl)cc4)cc23)c1F` [VEMURAFENIB], for which the Activity with MCF7 [1] was determined as 70.7%; with MCF7 [2], 2.29%; in the experiment with MCF7 [3] it was 8.13%; with MCF7 [4], 8.28%; with MCF7 [5], 66.4%; in the experiment with MCF7 [6], 66.7%. The Activity in the experiment with MCF7 [7] was 2.02%; in the experiment with MCF7 [8], 1.24%; in the experiment on MCF7 [9], 50.7%; with MCF7 [10], 1.81%; in the experiment with MCF7 [11] it was 16.7%; with MCF7 [12], 26.3%. Moreover, the Activity with MCF7 [13] is 34.7%; with MCF7 [14] it was 0.853%; in the experiment on MCF7 [15] it was 57.2%; in the experiment with MCF7 [16] it was 3.53%; in the experiment with MCF7 [17] it was 13.7%; with MCF7 [18] it was 14.4%. Also, the Activity in the experiment with MCF7 [19] came to 14.2%; in the experiment with MCF7 [20], 15.1%; with MCF7 [21], 13.9%; in the experiment with MCF7 [22], 74.6%; in the experiment on MCF7 [23], 21.7%; in the experiment with MCF7 [24], 14.9%.
